# ChEMBL document CHEMBL3822406, “Synthesis and evaluation of a series of 4-azaindole-containing p21-activated kinase-1 inhibitors” (Bioorg Med Chem Lett, 2016)
# Assays:
# Hepatocyte = test: Drug uptake in mouse hepatocytes measured at 30 secs relative to control; format: ADME, cell-based; conditions: 0.5 min
# [1] = target: Serine/threonine-protein kinase PAK 1 (Homo sapiens, UniProt Q13153); test: Inhibition of recombinant human GST-tagged PAK1 kinase domain expressed in baculovirus expression system assessed as suppression of phosphorylation of coumarin/fluorescein-labelled FRET peptide substrate at Ser/Thr19 residues preincubated with substrate for 10 mins followed by enzyme addition measured after 60 mins by Z-Lyte assay
# Chain of Serine/threonine-protein kinase PAK 1 (Q13153 whole entry, the tested form may be a part): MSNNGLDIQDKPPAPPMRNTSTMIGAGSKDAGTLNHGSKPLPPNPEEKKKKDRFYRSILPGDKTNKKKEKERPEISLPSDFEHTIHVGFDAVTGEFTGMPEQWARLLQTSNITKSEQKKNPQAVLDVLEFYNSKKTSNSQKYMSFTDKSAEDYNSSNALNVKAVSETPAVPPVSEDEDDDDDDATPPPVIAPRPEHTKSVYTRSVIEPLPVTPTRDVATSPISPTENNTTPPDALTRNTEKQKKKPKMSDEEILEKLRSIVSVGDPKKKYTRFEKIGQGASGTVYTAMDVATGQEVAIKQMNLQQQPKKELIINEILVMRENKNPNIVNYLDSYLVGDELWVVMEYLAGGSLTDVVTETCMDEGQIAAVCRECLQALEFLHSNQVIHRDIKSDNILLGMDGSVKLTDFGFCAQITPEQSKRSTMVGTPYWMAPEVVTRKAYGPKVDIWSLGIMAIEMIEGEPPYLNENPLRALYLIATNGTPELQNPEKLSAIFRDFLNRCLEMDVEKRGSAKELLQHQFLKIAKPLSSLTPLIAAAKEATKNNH
# [2] = target: Serine/threonine-protein kinase PAK 4 (Homo sapiens, UniProt O96013); test: Inhibition of human recombinant GST-tagged PAK4 kinase domain (295 to 591 residues) expressed in baculovirus expression system assessed as suppression of phosphorylation of coumarin/fluorescein-labelled FRET peptide substrate at Ser/Thr19 residues preincubated with substrate for 10 mins followed by enzyme addition measured after 60 mins by Z-Lyte assay
# Chain of Serine/threonine-protein kinase PAK 4 (O96013 whole entry, the tested form may be a part): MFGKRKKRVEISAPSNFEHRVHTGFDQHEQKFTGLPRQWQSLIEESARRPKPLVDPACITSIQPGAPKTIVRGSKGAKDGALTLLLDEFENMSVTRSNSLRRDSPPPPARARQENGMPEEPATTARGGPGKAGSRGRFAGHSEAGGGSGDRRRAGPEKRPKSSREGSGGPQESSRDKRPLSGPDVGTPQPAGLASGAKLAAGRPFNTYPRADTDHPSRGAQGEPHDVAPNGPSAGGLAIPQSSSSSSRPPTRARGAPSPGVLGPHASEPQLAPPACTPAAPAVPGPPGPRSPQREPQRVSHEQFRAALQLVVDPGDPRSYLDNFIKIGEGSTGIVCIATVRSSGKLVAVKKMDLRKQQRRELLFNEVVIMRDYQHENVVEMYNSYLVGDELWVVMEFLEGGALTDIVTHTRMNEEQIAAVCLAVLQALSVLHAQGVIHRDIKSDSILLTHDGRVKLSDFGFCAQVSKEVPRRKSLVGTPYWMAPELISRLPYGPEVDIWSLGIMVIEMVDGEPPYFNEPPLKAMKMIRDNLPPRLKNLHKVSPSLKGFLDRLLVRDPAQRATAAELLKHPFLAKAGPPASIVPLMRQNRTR
# [3] = target: Serine/threonine-protein kinase PAK 1/PAK 2/PAK 3 (Homo sapiens, UniProt O75914+Q13177+Q13153); test: Inhibition of PAK1/2/3 in human EBC1 cells assessed as MEK1 phosphorylation level at Serine298 residue incubated for 2 hrs by HTRF assay; format: cell-based
# [4] = Apparent permeability from apical to basolateral side in MDCK cells; format: ADME, cell-based, Canis lupus familiaris; conditions: dog
# [5] = Fraction unbound in mouse plasma; format: ADME, cell-free
# [6] = Kinetic solubility at pH 7.4 by high throughput assay; format: physicochemical; conditions: buffer, read-out: Kinetic_solubility
# [7] = Volume of distribution at steady state in nude mouse at 2 mg/kg, iv; format: ADME, organism-based; conditions: in vivo, read-out: Vdss
# [8] = Plasma clearance in nude mouse at 2 mg/kg, iv; format: ADME, organism-based
# Mus musculus = test: Unbound clearance in nude mouse at 2 mg/kg, iv; format: ADME, organism-based; conditions: in vivo
# [9] = Half life in nude mouse at 2 mg/kg, iv; format: ADME, organism-based; conditions: in vivo
# MDR1 (human) [10] = test: Apparent permeability from apical to basolateral side in MDCK cells expressing human MDR1; format: ADME, cell-based, Canis lupus familiaris; conditions: dog
# MDR1 (human) [11] = test: Apparent permeability from basolateral to apical side in MDCK cells expressing human MDR1; format: ADME, cell-based, Canis lupus familiaris; conditions: dog
# MDR1 (human) [12] = test: Efflux ratio of apparent permeability from basolateral to apical side over apical to basolateral side in MDCK cells expressing human MDR1; format: ADME, cell-based, Canis lupus familiaris; conditions: dog
# [13] = Lipophilicity, logD of compound at pH 7.4; format: physicochemical; conditions: buffer
# [14] = Cmax in nude mouse at 25 mg/kg, po; format: ADME, organism-based; parameters: dose 25 mg/kg, route oral; conditions: in vivo
# [15] = Tmax in nude mouse at 25 mg/kg, po; format: ADME, organism-based; conditions: in vivo
# [16] = Oral bioavailability in nude mouse at 25 mg/kg; format: ADME, organism-based; conditions: in vivo
smiles,measurement,setting,value
C[n+]1ccc(-c2ccccc2)cc1,fold change (FC),Hepatocyte,4.7
c1cc(Nc2cc(C3CC3)[nH]n2)nc(NCc2ccc3[nH]ccc3n2)n1,Ki,[1],120 nM
same,Ki,[2],505 nM
CC[C@H](Nc1nccc(Nc2cc(C3CC3)[nH]n2)n1)c1ccc2[nH]ccc2n1,Ki,[1],23 nM
same,IC50,[3],180 nM
C[C@H](Nc1nccc(Nc2cc(C3CC3)[nH]n2)n1)c1ccc2[nH]ccc2c1,fold change (FC),Hepatocyte,1.8
same,IC50,[3],120 nM
same,Papp A→B,[4],2 ×10⁻⁶ cm/s
same,fraction unbound,[5],0.008
same,solubility kinetic,[6],69 µM
same,Vd,[7],4.5 L/kg
same,clearance,[8],160 mL/min/kg
same,CL free,Mus musculus,20000 mL/min/kg
same,half-life,[9],19.2 min
same,Papp A→B,MDR1 (human) [10],0.5 ×10⁻⁶ cm/s
same,Papp B→A,MDR1 (human) [11],14.6 ×10⁻⁶ cm/s
same,efflux ratio,MDR1 (human) [12],27.7
same,logD,[13],3.7
C[C@H](Nc1nccc(Nc2cc([C@H]3C[C@@H]3F)[nH]n2)n1)c1ccc2[nH]ccc2n1,Papp A→B,[4],3.7 ×10⁻⁶ cm/s
same,solubility kinetic,[6],104 µM
C[C@H](Nc1nccc(Nc2cc(C3CC3)[nH]n2)n1)c1nc2cc[nH]c2cc1Cl,Ki,[1],119 nM
same,IC50,[3],190 nM
C[C@H](Nc1nccc(Nc2cc(C3CC3)[nH]n2)n1)c1ccc2[nH]cc(Cl)c2n1,Ki,[1],6 nM
same,IC50,[3],160 nM
C[C@H](Nc1nccc(Nc2cc(C3CC3)[nH]n2)n1)c1ccc2[nH]ccc2n1,fold change (FC),Hepatocyte,2.7
same,Ki,[1],32 nM
same,IC50,[3],51 nM
same,Papp A→B,[4],4.3 ×10⁻⁶ cm/s
same,fraction unbound,[5],0.045
same,solubility kinetic,[6],133 µM
same,Cmax,[14],4.7 µM
same,Tmax,[15],34.8 min
same,Vd,[7],1.65 L/kg
same,clearance,[8],48 mL/min/kg
same,CL free,Mus musculus,1067 mL/min/kg
same,half-life,[9],37.8 min
same,bioavailability,[16],4.8%
same,Papp A→B,MDR1 (human) [10],0.2 ×10⁻⁶ cm/s
same,Papp B→A,MDR1 (human) [11],9.8 ×10⁻⁶ cm/s
same,efflux ratio,MDR1 (human) [12],59
same,logD,[13],2.7
C[C@H](Nc1nccc(Nc2cc(C3CC(F)(F)C3)[nH]n2)n1)c1ccc2[nH]ccc2n1,Ki,[1],68 nM
same,IC50,[3],250 nM
C[C@@H](Nc1nccc(Nc2cc(C3CC3)[nH]n2)n1)c1ccc2[nH]ccc2n1,IC50,[1],685 nM
c1cc(Nc2cc(C3CC3)[nH]n2)nc(NCc2ccc3nccn3c2)n1,Ki,[1],360 nM
C[C@H](Nc1nccc(Nc2cc([C@@H]3C[C@H]3F)[nH]n2)n1)c1ccc2[nH]ccc2n1,Papp A→B,[4],4.2 ×10⁻⁶ cm/s
same,fraction unbound,[5],0.047
same,solubility kinetic,[6],73 µM
C[C@H](Nc1nccc(Nc2cc(C3CC3)[nH]n2)n1)c1nc2cc[nH]c2cc1F,Ki,[1],4 nM
same,IC50,[3],57 nM
same,Papp A→B,[4],8.3 ×10⁻⁶ cm/s
same,fraction unbound,[5],0.014
same,solubility kinetic,[6],58 µM
C[C@@H](c1ccc2[nH]ccc2n1)N(C)c1nccc(Nc2cc(C3CC3)[nH]n2)n1,Ki,[1],18 nM
same,IC50,[3],240 nM
CCCCNC(=O)NS(=O)(=O)c1ccc(C)cc1 [TOLBUTAMIDE],fold change (FC),Hepatocyte,1.4
O=C(O)C[C@H](O)C[C@H](O)/C=C/c1c(C2CC2)nc2ccccc2c1-c1ccc(F)cc1 [PITAVASTATIN],fold change (FC),Hepatocyte,6.6
C[C@H](Nc1nccc(Nc2cc(C3CC3)[nH]n2)n1)c1cc2cc[nH]c2cn1,IC50,[3],68 nM
same,Papp A→B,[4],0.9 ×10⁻⁶ cm/s
same,fraction unbound,[5],0.039
same,solubility kinetic,[6],73 µM
